“And” between values parts separate entries of the source, which are not always exact repeats. Identical values can stand only once. Like-named read-outs stand apart in the source and are kept apart here.
How the values were obtained:
Efl1 R1086Q•Sdo1 = molecular target: T1, Efl1 R1086Q•Sdo1 (Saccharomyces cerevisiae, UniProt P53893, R1086Q); assay: ITC: binding of guanine nucleotides to pre-formed complex Efl1 R1086Q•Sdo1; conditions: for ΔCpb: from ΔHb at 25–35 °C; for -TΔs / Δg / Δh / κ (heterotropic cooperativity): Effect of Mg^2+
T1 construct: made in house; host or cells: Efl1: Saccharomyces cerevisiae; Sdo1: Escherichia coli C41
Procedure: All calorimetric measurements were carried out using MicroCal^TM iTC200 System (GE Healthcare, Northampton, MA, USA) in a temperature range of 25–35 °C. Experiments were performed in a buffer consisting of 50 mM Tris-HCl (pH 8.0), 150 mM NaCl, 100 µM DTT, and 5% glycerol. In the titrations with Mg^2+-bound nucleotides, both the ligand and protein solutions contained 5 mM MgCl2. In the case of titrations with Mg^2+-free nucleotide, both the ligand and protein solutions were supplemented with 2 mM EDTA to sequester any residual trace of metal ions in solution. Protein samples and ligands were prepared in the exact same buffer prior to each titration. Protein concentration in the cell comprised 30–50 µM GTPase, while the ligand concentration in the syringe was 2–3 mM for GTP, MgGTP, GDP, and MgGDP. To ensure measuring the interaction of the complex Efl1 R1086Q•Sdo1 with the nucleotide, an eight-fold concentration excess of Sdo1 was used compared with that of the enzyme. […] The titration schedule consisted of 15–20 consecutive injections of the ligand with 5 min intervals between injections and a stirring rate of 700 rpm. The dilution heat of the ligand was obtained by adding the ligand to a buffer solution under identical conditions and with the same injection schedule used for the protein sample. All samples were degassed for 10 min prior to the experiment.
The binding isotherms obtained for the isolated GTPase in the presence of Mg(II) were analysed using a ternary model in which the protein can bind to the free nucleotide (G(D)TP) or that bound to one magnesium ion (MgG(D)TP); additionally, GTP may also exist in the form of Mg2GTP, which is not recognised by the protein. The derivation of this coupled-equilibria model can be reviewed in [6, 31]. The binding constant (Kb), the enthalpy change (∆Hb), and the stoichiometry (n) were obtained with the non-linear routines implemented in Origin 5.0 (OriginLab, Co., Northampton, MA, USA) using a one-binding-site model as described in [32, 33]. The heterotropic cooperativity for the binding of guanine nucleotides and Sdo1 to Efl1 R1086Q were calculated as previously described in [6, 32]. The cooperative effects of Mg(II) on the binding of guanine nucleotides to Efl1 R1086Q alone and bound to Sdo1 were calculated as follows:κ = KE-MG/KE-G κ = KES-MG/KES-G Δh = ΔHE-MG − ΔHE-G Δh = ΔHES-MG − ΔHES-G where subscripts E-MG and E-G stand for the association of the metal-bound and metal-free guanine nucleotide with mutant Efl1, respectively. Corresponding expressions applied to the heterotropic cooperativity of the binding of nucleotides to the preformed complex, Efl1•Sdo1 (ES).
The impact of Sdo1 on the binding of Efl1 R1086Q to guanine nucleotides in the presence of magnesium ions is contained in KES-MG and ΔHES-MG relative to the KE-S and ΔHE-S values; analogous ratios report the effects in the absence of Mg(II):κ = KES-MG/KE-S κ = KES-G/KE-G Δh = ΔHES-MG − ΔHE-S Δh = ΔHES-G − ΔHE-G
The corresponding cooperative entropy change was calculated as:TΔs = Δh − Δg = Δh + RTlnκ
The detailed methodology and equations to compute the changes in the accessible surface area (∆ASA) of the GTPase upon binding to nucleotides and the ∆S energetic-based parameters are reported in [6]. Briefly, the water-accessible areas (ASAs) were computed using programme NACCESS, while the changes in accessible surface area (ΔASA) upon the formation of each GTPase–nucleotide complex were estimated considering the difference between the complex and the sum of the free interacting partners. The calculated polar (ΔASAp) and apolar (ΔASAap) area changes were subsequently used to estimate the free molecular partners. […]

wild-type Efl1 = conditions: cited from earlier work; for -TΔSb / Kd / ΔGb / ΔHb / ΔCpb: guanine nucleotide
[1] = Effect of Mg^2+, wild-type Efl1 − Sdo1, 30 °C
[2] = Effect of Sdo1, wild-type Efl1 − Mg^2+, 30 °C

T1 sequence (P53893 whole entry R1086Q): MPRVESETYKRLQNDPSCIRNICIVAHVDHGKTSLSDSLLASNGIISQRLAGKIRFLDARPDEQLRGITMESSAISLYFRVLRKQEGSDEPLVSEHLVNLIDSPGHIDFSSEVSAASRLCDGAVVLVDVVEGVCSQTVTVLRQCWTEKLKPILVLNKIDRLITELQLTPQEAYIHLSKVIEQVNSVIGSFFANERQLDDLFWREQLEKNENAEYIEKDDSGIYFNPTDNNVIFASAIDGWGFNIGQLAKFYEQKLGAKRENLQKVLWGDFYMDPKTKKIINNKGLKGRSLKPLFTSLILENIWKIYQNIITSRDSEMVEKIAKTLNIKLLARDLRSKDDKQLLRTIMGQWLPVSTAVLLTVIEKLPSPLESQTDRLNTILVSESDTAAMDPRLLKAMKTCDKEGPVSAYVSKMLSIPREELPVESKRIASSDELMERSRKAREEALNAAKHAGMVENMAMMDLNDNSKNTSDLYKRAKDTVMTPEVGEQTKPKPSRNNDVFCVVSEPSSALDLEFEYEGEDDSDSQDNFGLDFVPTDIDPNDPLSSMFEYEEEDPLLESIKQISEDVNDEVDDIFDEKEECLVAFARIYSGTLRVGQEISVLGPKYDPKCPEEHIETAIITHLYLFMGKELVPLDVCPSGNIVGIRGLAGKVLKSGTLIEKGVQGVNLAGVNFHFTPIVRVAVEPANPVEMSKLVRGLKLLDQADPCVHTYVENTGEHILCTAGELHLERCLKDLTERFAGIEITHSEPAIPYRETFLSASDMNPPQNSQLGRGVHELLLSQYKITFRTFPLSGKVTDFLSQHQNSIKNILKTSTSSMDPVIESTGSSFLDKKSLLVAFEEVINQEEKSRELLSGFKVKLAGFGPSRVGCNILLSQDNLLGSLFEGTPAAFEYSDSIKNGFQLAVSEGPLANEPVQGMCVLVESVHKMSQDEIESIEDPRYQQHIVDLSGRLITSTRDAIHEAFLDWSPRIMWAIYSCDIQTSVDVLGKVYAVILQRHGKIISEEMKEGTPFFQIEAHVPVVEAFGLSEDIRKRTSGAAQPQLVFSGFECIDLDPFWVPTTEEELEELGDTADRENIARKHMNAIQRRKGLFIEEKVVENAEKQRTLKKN
T1 sequence (Q07953 whole entry, further chain): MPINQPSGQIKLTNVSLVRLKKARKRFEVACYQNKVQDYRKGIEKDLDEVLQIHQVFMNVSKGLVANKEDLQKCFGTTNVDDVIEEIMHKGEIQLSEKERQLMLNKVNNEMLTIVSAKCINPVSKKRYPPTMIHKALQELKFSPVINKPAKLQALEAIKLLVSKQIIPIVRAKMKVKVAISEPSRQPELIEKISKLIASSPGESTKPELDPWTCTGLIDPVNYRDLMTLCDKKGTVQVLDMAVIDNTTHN

Nc1nc2c(ncn2[C@@H]2O[C@H](COP(=O)(O)OP(=O)(O)OP(=O)(O)O)[C@@H](O)[C@H]2O)c(=O)[nH]1 [GTP]
-TΔSb (Efl1 R1086Q•Sdo1; +Mg^2+, 25 °C): -5.1 kcal/mol
ΔGb (Efl1 R1086Q•Sdo1; +Mg^2+, 25 °C): -6.2 kcal/mol
ΔHb (Efl1 R1086Q•Sdo1; +Mg^2+, 25 °C): -1.1 ± 0.04 kcal/mol
-TΔSb (Efl1 R1086Q•Sdo1; +Mg^2+, 30 °C): -2.9 kcal/mol
Nconfres (number of residues changing conformation, absolute value) (Efl1 R1086Q•Sdo1; +Mg^2+, 30 °C): 36
Nconfrotb (number of routable bonds changing conformation, absolute value) (Efl1 R1086Q•Sdo1; +Mg^2+, 30 °C): 47
ΔCpconf (Efl1 R1086Q•Sdo1; +Mg^2+, 30 °C): −375 cal mol^−1 K^−1
ΔCprb (Efl1 R1086Q•Sdo1; +Mg^2+, 30 °C): −25 cal mol^−1 K^−1
ΔGb (Efl1 R1086Q•Sdo1; +Mg^2+, 30 °C): -5.9 kcal/mol
ΔHb (Efl1 R1086Q•Sdo1; +Mg^2+, 30 °C): -3.0 ± 0.2 kcal/mol
ΔSb (Efl1 R1086Q•Sdo1; +Mg^2+, 30 °C): 9 cal mol^−1 K^−1
ΔSconf (Efl1 R1086Q•Sdo1; +Mg^2+, 30 °C): −78 cal mol^−1 K^−1
ΔSsolv (Efl1 R1086Q•Sdo1; +Mg^2+, 30 °C): 96 cal mol^−1 K^−1
−ΔASAconf (Efl1 R1086Q•Sdo1; +Mg^2+, 30 °C): 1683 Å^2
-TΔSb (Efl1 R1086Q•Sdo1; +Mg^2+, 35 °C): -0.9 kcal/mol
ΔGb (Efl1 R1086Q•Sdo1; +Mg^2+, 35 °C): -6.0 kcal/mol
ΔHb (Efl1 R1086Q•Sdo1; +Mg^2+, 35 °C): -5.1 ± 0.4 kcal/mol
ΔCpb (Efl1 R1086Q•Sdo1; +Mg^2+): −400 cal mol^−1 K^−1 and −400 ± 11 cal mol^−1 K^−1
-TΔs (Efl1 R1086Q•Sdo1; Efl1 R1086Q + Sdo1, 25 °C): -2.6 kcal/mol
Δg (Efl1 R1086Q•Sdo1; Efl1 R1086Q + Sdo1, 25 °C): 0.3 kcal/mol
Δh (Efl1 R1086Q•Sdo1; Efl1 R1086Q + Sdo1, 25 °C): 2.9 kcal/mol
κ (heterotropic cooperativity) (Efl1 R1086Q•Sdo1; Efl1 R1086Q + Sdo1, 25 °C): 0.6
-TΔs (Efl1 R1086Q•Sdo1; Efl1 R1086Q + Sdo1, 30 °C): -0.3 kcal/mol
Δg (Efl1 R1086Q•Sdo1; Efl1 R1086Q + Sdo1, 30 °C): 0.6 kcal/mol
Δh (Efl1 R1086Q•Sdo1; Efl1 R1086Q + Sdo1, 30 °C): 0.9 kcal/mol
κ (heterotropic cooperativity) (Efl1 R1086Q•Sdo1; Efl1 R1086Q + Sdo1, 30 °C): 0.3
-TΔs (Efl1 R1086Q•Sdo1; Efl1 R1086Q + Sdo1, 35 °C): 1.9 kcal/mol
Δg (Efl1 R1086Q•Sdo1; Efl1 R1086Q + Sdo1, 35 °C): 0.5 kcal/mol
Δh (Efl1 R1086Q•Sdo1; Efl1 R1086Q + Sdo1, 35 °C): -1.4 kcal/mol
κ (heterotropic cooperativity) (Efl1 R1086Q•Sdo1; Efl1 R1086Q + Sdo1, 35 °C): 0.5
Kd (Efl1 R1086Q•Sdo1; +Mg^2+, 25 °C): 29 ± 5 µM
Kd (Efl1 R1086Q•Sdo1; +Mg^2+, 30 °C): 58 ± 7 µM
Kd (Efl1 R1086Q•Sdo1; +Mg^2+, 35 °C): 52 ± 7 µM
Kd (Efl1 R1086Q•Sdo1; −Mg^2+, 25 °C): 17 ± 5 µM
Kd (Efl1 R1086Q•Sdo1; −Mg^2+, 30 °C): 23 ± 7 µM
Kd (Efl1 R1086Q•Sdo1; −Mg^2+, 35 °C): 25 ± 7 µM
fold decrease in affinity of the preformed complex compared with the free enzyme (Efl1 R1086Q•Sdo1; absence of magnesium ions): 2–4 times
-TΔSb (Efl1 R1086Q•Sdo1; −Mg^2+, 25 °C): -2.5 kcal/mol
ΔGb (Efl1 R1086Q•Sdo1; −Mg^2+, 25 °C): -6.5 kcal/mol
ΔHb (Efl1 R1086Q•Sdo1; −Mg^2+, 25 °C): -4.0 ± 0.2 kcal/mol
-TΔSb (Efl1 R1086Q•Sdo1; −Mg^2+, 30 °C): -2.6 kcal/mol
Nconfres (number of residues changing conformation, absolute value) (Efl1 R1086Q•Sdo1; −Mg^2+, 30 °C): 4
Nconfrotb (number of routable bonds changing conformation, absolute value) (Efl1 R1086Q•Sdo1; −Mg^2+, 30 °C): 14
ΔCpconf (Efl1 R1086Q•Sdo1; −Mg^2+, 30 °C): 41 cal mol^−1 K^−1
ΔGb (Efl1 R1086Q•Sdo1; −Mg^2+, 30 °C): -6.5 kcal/mol
ΔHb (Efl1 R1086Q•Sdo1; −Mg^2+, 30 °C): -3.9 ± 0.1 kcal/mol
ΔSb (Efl1 R1086Q•Sdo1; −Mg^2+, 30 °C): 9 cal mol^−1 K^−1
ΔSconf (Efl1 R1086Q•Sdo1; −Mg^2+, 30 °C): 24 cal mol^−1 K^−1
ΔSsolv (Efl1 R1086Q•Sdo1; −Mg^2+, 30 °C): −7 cal mol^−1 K^−1
−ΔASAconf (Efl1 R1086Q•Sdo1; −Mg^2+, 30 °C): −184 Å^2
-TΔSb (Efl1 R1086Q•Sdo1; −Mg^2+, 35 °C): -2.8 kcal/mol
ΔGb (Efl1 R1086Q•Sdo1; −Mg^2+, 35 °C): -6.5 kcal/mol
ΔHb (Efl1 R1086Q•Sdo1; −Mg^2+, 35 °C): -3.7 ± 0.4 kcal/mol
ΔCpb (Efl1 R1086Q•Sdo1; −Mg^2+): 30 cal mol^−1 K^−1 and 30 ± 6 cal mol^−1 K^−1
-TΔs (wild-type Efl1; [1]): -1.3 kcal/mol
Δg (wild-type Efl1; [1]): -0.4 kcal/mol
Δh (wild-type Efl1; [1]): 0.9 kcal/mol
κ (heterotropic cooperativity) (wild-type Efl1; [1]): 2
-TΔs (wild-type Efl1; [2]): -7.0 kcal/mol
Δg (wild-type Efl1; [2]): -1.8 kcal/mol
Δh (wild-type Efl1; [2]): 5.2 kcal/mol
κ (heterotropic cooperativity) (wild-type Efl1; [2]): 22.3
-TΔSb (wild-type Efl1; +Mg^2+, 30 °C): 1.0 kcal/mol
Kd (wild-type Efl1; +Mg^2+, 30 °C): 125 µM
ΔGb (wild-type Efl1; +Mg^2+, 30 °C): -5.4 kcal/mol
ΔHb (wild-type Efl1; +Mg^2+, 30 °C): -6.4 ± 0.4 kcal/mol
ΔCpb (wild-type Efl1; +Mg^2+): −560 ± 23 cal mol^−1 K^−1 and −560 cal mol^−1 K^−1
-TΔSb (wild-type Efl1; −Mg^2+, 30 °C): 2.3 kcal/mol
Kd (wild-type Efl1; −Mg^2+, 30 °C): 250 µM
ΔGb (wild-type Efl1; −Mg^2+, 30 °C): -5.0 kcal/mol
ΔHb (wild-type Efl1; −Mg^2+, 30 °C): -7.3 ± 0.3 kcal/mol
ΔCpb (wild-type Efl1; −Mg^2+): −700 ± 34 cal mol^−1 K^−1 and −700 cal mol^−1 K^−1
fold by which Sdo1 favoured the interaction with GTP (wild-type Efl1; wild-type Efl1): 20–40 fold

— PMC9405973, “Altered Conformational Landscape upon Sensing Guanine Nucleotides in a Disease Mutant of Elongation Factor-like 1 (EFL1) GTPase” (Biomolecules, 2022)
